Experimental data taken from patent US20160000737A1, “TREATMENT OF PETS WITH SIRTUIN ACTIVATORS” (NUSIRT SCIENCES, INC., priority 2013, published 2016).
Marks after values point to notes of the source that are not given here.

Legend:
diet-induced obese mice [1] = assay: Oxygen consumption/substrate utilization in metabolic chambers (CLAMS); assay type: in vivo, c57/BL6 mice
Procedure: at the end of the obesity induction period (day 0 of treatment group) and at 2 weeks and 6 weeks of treatment, oxygen consumption and substrate utilization was measured via metabolic chambers using the Comprehensive Lab Animal Monitoring Systems (CLAMS, Columbus Instruments, Columbus, Ohio) in subgroups of each treatment group. Each animal was placed in individual cages without bedding that allow automated, non-invasive data collection. Each cage is an indirect open circuit calorimeter that provides measurement of oxygen consumption, carbon dioxide production, and concurrent measurement of food intake. All mice were acclimatized to the chambers for 24 hours prior to the experiment and maintained under the regular 12:12 light:dark cycle with free access to water and food. All experiments were started in the morning and data were collected for 24 hours. Each chamber was passed with 0.61 of air/min and was sampled for 2 min at 32-minute intervals. Exhaust O2 and CO2 content from each chamber was compared with ambient O2 and CO2 content. Food consumption was measured by electronic scales.

SIRT1 = biological target: T1, SIRT1 (Mus musculus, UniProt Q923E4); assay: Adipose tissue SIRT1 activity (SIRT1 Fluorimetric Drug Discovery Kit); assay type: in vivo, c57/BL6 mice
T1 construct: effects of dietary treatments on adipose tissue Sirt1 activity; from tissue; host or cells: mouse adipose tissue
T1 sequence (Q923E4 1-737): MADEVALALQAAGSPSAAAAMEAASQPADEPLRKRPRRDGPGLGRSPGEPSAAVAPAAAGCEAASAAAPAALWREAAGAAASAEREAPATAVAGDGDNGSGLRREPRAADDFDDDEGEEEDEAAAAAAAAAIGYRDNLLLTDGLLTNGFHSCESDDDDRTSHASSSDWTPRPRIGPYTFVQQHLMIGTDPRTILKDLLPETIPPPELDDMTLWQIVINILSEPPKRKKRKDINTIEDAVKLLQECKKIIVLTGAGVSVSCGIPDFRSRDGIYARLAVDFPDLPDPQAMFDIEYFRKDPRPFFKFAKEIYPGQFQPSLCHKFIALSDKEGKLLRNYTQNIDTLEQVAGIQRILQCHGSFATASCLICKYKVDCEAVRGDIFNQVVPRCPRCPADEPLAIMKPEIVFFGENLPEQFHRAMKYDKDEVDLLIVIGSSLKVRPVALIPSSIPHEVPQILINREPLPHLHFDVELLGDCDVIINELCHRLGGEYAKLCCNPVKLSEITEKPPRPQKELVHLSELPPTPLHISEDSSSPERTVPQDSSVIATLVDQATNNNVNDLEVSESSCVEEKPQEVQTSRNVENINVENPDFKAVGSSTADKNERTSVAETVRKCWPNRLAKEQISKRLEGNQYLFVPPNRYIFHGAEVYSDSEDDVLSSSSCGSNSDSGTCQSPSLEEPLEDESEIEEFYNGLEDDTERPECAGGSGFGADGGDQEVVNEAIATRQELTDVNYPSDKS
Procedure: SIRT1 activity was measured by using the SIRT1 Fluorimetric Drug Discovery Kit (BML-AK555, ENZO Life Sciences International, Inc. PA, USA). In this assay, SIRT1 activity is assessed by the degree of deacetylation of a standardized substrate containing an acetylated lysine side chain. The substrate utilized is a peptide containing amino acids 379-382 of human p53 (Arg-His-Lys-Lys[Ac]), an established target of SIRT1 activity; SIRT1 activity is directly proportional to the degree of deacetylation of Lys-382. Samples were incubated with peptide substrate (25 μM), and NAD^+ (500 μM) in a phosphate-buffered saline solution at 37° C. on a horizontal shaker for 45 minutes. The reaction was stopped with the addition of 2 mM nicotinamide and a developing solution that binds to the deacetylated lysine to form a fluorophore. Following 10 minutes incubation at 37° C., fluorescence was read in a plate-reading fluorometer at an excitation wavelength of 360 nm and an emission wavelength of 450 nm. Resveratrol ([…]) served as a SIRT1 activator and suramin sodium (25 mM) as a SIRT1 inhibitor; wells including each were utilized as positive and negative controls in each set of reactions. A standard curve was constructed using deacetylated substrate (0-10 μM). Data was normalized to cellular protein concentration measured via BCA-assay.

diet-induced obese mice [2] = assay: Indices of insulin sensitivity (plasma glucose, insulin, HOMAIR); assay type: in vivo, c57/BL6 mice; details: resveratrol at either dose, HMB, each alone
Procedure: Insulin sensitivity can be measured using a variety of techniques, including HOMAIR. HOMAIR, which is the homeostasis model assessment of insulin resistance can be used as a screening index of changes in insulin sensitivity. HOMAIR can be calculated via standard formula from fasting plasma insulin and glucose as follows: HOMAIR=[Insulin (uU/mL)×glucose (mM)]/22.5.
(§1) The animals were housed in polypropylene cages at a room temperature of 22±2° C. and regime of 12 h light/dark cycle. The animals had free access to water and their experimental food throughout the experiment. At the of the treatment period (6 weeks) all animals were humanely euthanized, and blood and tissues collected for further experiments.

[3] = Circulating level after dosing; assay type: in vivo
diet-induced obese mice [4] = assay: Diet-induced obese mice on resveratrol/HMB/leucine diets: body weight, weight gain, adiposity; assay type: in vivo, c57/BL6 mice
Description: Six week old male c57/BL6 mice were fed a high-fat diet with fat increased to 45% of energy (Research Diets D12451) for 6 weeks to induce obesity. At the end of this obesity induction period, animals were randomly divided into the following seven different diet treatment groups with 10 animals per group (overall 70 animals) and maintained on these diets for 6 weeks:
Group 1 (labeled “control group”): high-fat diet only (same as in obesity induction period (Research Diets D12451)).
This diet was modified for groups 2 to 7 in the following way:
Group 2 (labeled “low dose resveratrol”): high-fat diet mixed with 12.5 mg resveratrol/kg diet.
Group 3 (labeled “high dose resveratrol”): high-fat diet mixed with 225 mg resveratrol/kg diet.
Group 4 (labeled “low dose HMB”): high-fat diet mixed with 2 g of the calcium salt of hydroxymethylbutyrate, a naturally occurring metabolite of leucine (CaHMB).
Group 5 (labeled “low dose resveratrol plus low dose CaHMB”): high fat-diet mixed with 12.5 mg of resveratrol/kg diet and 2 g CaHMB/kg diet.
Group 6 (labeled “low dose resveratrol plus high dose HMB”): high fat-diet mixed with 12.5 mg of resveratrol/kg diet and 10 g CaHMB/kg diet.
The animals were housed in polypropylene cages at a room temperature of 22±2° C. and regime of 12 h light/dark cycle. The animals had free access to water and their experimental food throughout the experiment. […]

diet-induced obese mice [5] = assay: microPET/CT glucose and palmitate uptake; assay type: in vivo, c57/BL6 mice; details: 6 weeks
Procedure: at the end of the treatment period (6 weeks of treatment) subgroups of each treatment diet group (5 animals/group, 35 animals total) were used to measure whole body glucose and palmitate uptake via PET/CT Imaging. To visualize these compounds using microPET imaging, the glucose or palmitate was labeled with fluorine-18 (108 mins half life) or carbon-11 (20 mins half life), respectively. Each mouse was fasted for 4 hours, then anesthetized using 1-3% isoflurane delivered by nose cone or in a mouse-sized induction chamber purpose-built for small animal imaging protocols. While under anesthesia the mice were injected iv with <2 mCi of each tracer, then be left for a period of time (minutes to up˜1 hour) to allow the uptake of the tracer. During the scan, mice were kept warm using a thermostatically controlled heated bed and were treated with ophthalmic ointment prior to scanning Following the live scan the mice were returned to their cage and revived. Mice were monitored constantly during this time. Following live data acquisition the mice were sacrificed by isoflurane overdose and organs harvested for further experiments.

[6] = test system: inflammatory biomarkers (C-reactive protein, IL-6, MCP-1, adiponectin); assay: Inflammatory biomarkers in diet-induced obese mice; assay type: in vivo, c57/BL6 mice; details: for Adiponectin / C-reactive protein / IL-6 / MCP-1: 6 weeks
Procedure: as §1

[7] = high dose: 225 mg resveratrol/kg diet
[8] = low dose: 12.5 mg resveratrol/kg diet

Oc1ccc(/C=C/c2cc(O)cc(O)c2)cc1 [Resveratrol, 3,5,4′-Trihydroxy-trans-stilbene]
RER (diet-induced obese mice [1]; high dose of resveratrol): decreased
heat production and skeletal muscle fat oxidation (diet-induced obese mice [1]; high dose of resveratrol): significantly increased
Respiratory Exchange Ratio (24 hr RER) (diet-induced obese mice [1]; [7]): 0.825 ± 0.007^b
Respiratory Exchange Ratio (24 hr RER) (diet-induced obese mice [1]; [8]): 0.847 ± 0.008^a
adipose tissue Sirt1 activity (SIRT1; high dose resveratrol): non-significant trend towards an increase
adipose tissue Sirt1 activity (SIRT1; resveratrol or HMB alone): Neither resveratrol nor HMB exerted significant independent effects
effect on plasma insulin or on muscle glucose uptake (diet-induced obese mice [2]): Neither resveratrol at either dose nor HMB exerted any significant effect
circulating level of resveratrol ([3]; oral dosing of about 10 mg, subject about 30 lb): about 200 nM
circulating level of resveratrol ([3]; oral dosing of about 50 mg, subject about 150 lb): about 200 nM
circulating level of resveratrol ([3]; oral dosing of about 220 mg, subject about 30 lb): about 0.5 mM
circulating level of resveratrol ([3]; oral dosing of about 1100 mg, subject about 150 lb): about 0.5 mM
effect on body weight, weight gain, or visceral adipose tissue mass (diet-induced obese mice [4]; high dose resveratrol): no significant effect
effect on body weight, weight gain, visceral adipose tissue mass, fat oxidation, respiratory exchange ratio (RER), or heat production (diet-induced obese mice [4]; low doses, each alone): no significant independent effect
Muscle Glucose Uptake (18F-deoxyglucose SUV) (diet-induced obese mice [5]; [7]): 3.87 ± 0.32^a SUV
Muscle Glucose Uptake (18F-deoxyglucose SUV) (diet-induced obese mice [5]; [8]): 3.63 ± 1.29^a SUV
effect on MCP-1 or c-reactive protein ([6]; HMB or low dose of resveratrol alone): neither HMB nor a low dose of resveratrol exerted any effect
circulating IL-6 ([6]; high dose of resveratrol): significantly reduced
Adiponectin [6, 7]: 14.8 ± 1.8^b ng/mL
C-reactive protein [6, 7]: 123.9 ± 35.3^a ng/mL
IL-6 [6, 7]: 14.1 ± 1.3^b pg/mL
MCP-1 [6, 7]: 27.3 ± 6.8^b pg/mL
circulating IL-6 ([6]; low dose of resveratrol alone): no independent effect
Adiponectin [6, 8]: 12.4 ± 1.1 ng/mL
C-reactive protein [6, 8]: 134.8 ± 8.5^a ng/mL
IL-6 [6, 8]: 23.2 ± 2.9^a pg/mL
MCP-1 [6, 8]: 104.4 ± 16.5^a pg/mL

CC(C)C[C@H](N)C(=O)O [leucine, L-leucine]
circulating level of leucine ([3]; dosing of about 60 mg leucine, subject weighing about 30 lb): about 0.25 mM
circulating level of leucine ([3]; dosing of about 225 mg leucine, subject weighing about 30 lb): about 0.5 mM
circulating level of leucine ([3]; dosing of about 300 mg leucine, subject weighing about 150 lb): about 0.25 mM
circulating level of leucine ([3]; dosing of about 1,125 mg leucine, subject weighing about 150 lb): about 0.5 mM
